Test results taken from patent publication US10954221B2, “GLP-1R agonists and uses thereof” (QILU REGOR THERAPEUTICS INC., priority 2019, dated 2021).

Experiments:
GLP1R [1] = biological target: T1, GLP1R (Homo sapiens, UniProt P43220); assay: GLP1R cAMP assay (HTRF), HEK293/GLP-1R/CRE/Luc, Clone 4
Target sequence in this assay (P43220 24-463): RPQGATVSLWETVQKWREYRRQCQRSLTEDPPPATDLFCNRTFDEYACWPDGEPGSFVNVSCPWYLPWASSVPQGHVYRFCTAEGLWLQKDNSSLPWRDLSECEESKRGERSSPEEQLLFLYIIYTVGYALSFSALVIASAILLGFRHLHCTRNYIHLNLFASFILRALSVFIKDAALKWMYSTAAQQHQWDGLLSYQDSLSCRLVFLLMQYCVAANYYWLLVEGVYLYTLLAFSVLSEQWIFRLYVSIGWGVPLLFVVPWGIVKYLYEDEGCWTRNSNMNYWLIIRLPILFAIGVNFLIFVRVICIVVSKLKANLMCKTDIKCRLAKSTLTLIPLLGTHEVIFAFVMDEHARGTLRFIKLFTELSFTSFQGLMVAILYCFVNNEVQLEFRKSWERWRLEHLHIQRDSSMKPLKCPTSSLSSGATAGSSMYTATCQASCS

GLP1R [2] = biological target: T1, GLP1R; design: Emax: dose or concentration left out as unconfirmed; settings: for Emax: CHO-K1, […], read-out: β-arrestin recruitment Bmax (%)
Target sequence in this assay (P43220 24-463): as above
Target sequence in this assay (P32121 whole entry partner): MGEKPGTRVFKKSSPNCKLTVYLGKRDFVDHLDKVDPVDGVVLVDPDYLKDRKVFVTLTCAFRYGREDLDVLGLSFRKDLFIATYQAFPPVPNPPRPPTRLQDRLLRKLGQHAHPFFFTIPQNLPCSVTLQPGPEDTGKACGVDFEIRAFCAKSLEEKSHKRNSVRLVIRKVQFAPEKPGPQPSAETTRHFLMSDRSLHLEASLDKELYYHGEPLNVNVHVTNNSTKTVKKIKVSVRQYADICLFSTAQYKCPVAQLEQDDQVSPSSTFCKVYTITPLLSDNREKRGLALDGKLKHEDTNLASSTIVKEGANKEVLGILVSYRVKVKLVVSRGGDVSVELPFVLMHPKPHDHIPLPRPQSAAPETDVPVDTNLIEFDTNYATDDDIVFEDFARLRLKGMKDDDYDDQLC

SMILES	EC50 (GLP1R [1])	Emax (GLP1R [2])	β-arrestin recruitment Bmax (%) (GLP1R [2]; partial maximum relative effect at the highest concentration tested (top 10 μM), relative to Bmax of GLP-1 (7-37), PathHunter CHO-K1 GLP1R β-Arrestin cells)
O=C(O)c1ccc2nc(Cc3ccc(-c4cccc(OCc5ccc(Cl)cc5F)n4)c(F)c3)n(C[C@@H]3CCO3)c2n1 [Compound 102, (S)-2-(4-(6-((4-chloro-2-fluorobenzyl)oxy)pyridin-2-yl)-3-fluorobenzyl)-3-(oxetan-2-ylmethyl)-3H-imidazo[4,5-b]pyridine-5-carboxylic acid]	< 15 nM	28.3%	
O=C(O)c1ccc2nc(Cc3cc(F)c(-c4cccc(OCc5ccc(Cl)cc5F)n4)cc3F)n(C[C@@H]3CCO3)c2c1 [Compound 257, (S)-2-(4-(6-((4-chloro-2-fluorobenzyl)oxy)pyridin-2-yl)-2,5-difluorobenzyl)-1-(oxetan-2-ylmethyl)-1H-benzo[d]imidazole-6-carboxylic acid]	< 15 nM	31.4%	
N#Cc1ccc(COc2cccc(-c3cc(F)c(Cc4nc5ccc(C(=O)O)cc5n4C[C@@H]4CCO4)cc3F)n2)c(F)c1 [Compound 271, (S)-2-(4-(6-((4-cyano-2-fluorobenzyl)oxy)pyridin-2-yl)-2,5-difluorobenzyl)-1-(oxetan-2-ylmethyl)-1H-benzo[d]imidazole-6-carboxylic acid]	< 15 nM	28.5%	
N#Cc1ccc(COc2nc(-c3ccc(Cc4nc5ccc(C(=O)O)nc5n4C[C@@H]4CCO4)c(F)c3)ccc2F)c(F)c1 [Compound 284, (S)-2-(4-(6-(4-cyano-2-fluorobenzyloxy)-5-fluoropyridin-2-yl)-2-fluorobenzyl)-3-(oxetan-2-ylmethyl)-3H-imidazo[4,5-b]pyridine-5-carboxylic acid]	< 15 nM	25.5%	
O=C(O)c1ccc2nc(Cc3ccc(-c4ncc(F)c(OCc5ccc(F)cc5F)n4)cc3F)n(C[C@@H]3CCO3)c2n1 [Compound 285, (S)-2-(4-(4-((2,4-difluorobenzyl)oxy)-5-fluoropyrimidin-2-yl)-2-fluorobenzyl)-3-(oxetan-2-ylmethyl)-3H-imidazo[4,5-b]pyridine-5-carboxylic acid]	< 15 nM	24%	
N#Cc1ccc(COc2nc(-c3ccc(Cc4nc5ccc(C(=O)O)nc5n4C[C@@H]4CCO4)cc3F)ccc2F)c(F)c1 [Compound 289, (S)-2-(4-(6-((4-cyano-2-fluorobenzyl)oxy)-5-fluoropyridin-2-yl)-3-fluorobenzyl)-3-(oxetan-2-ylmethyl)-3H-imidazo[4,5-b]pyridine-5-carboxylic acid]	< 15 nM	29.6%	
N#Cc1ccc(COc2cccc(-c3ccc(Cc4nc5ccc(C(=O)O)nc5n4C[C@@H]4CCO4)cc3F)n2)c(F)c1 [Compound 293, (S)-2-(4-(6-((4-cyano-2-fluorobenzyl)oxy)pyridin-2-yl)-3-fluorobenzyl)-3-(oxetan-2-ylmethyl)-3H-imidazo[4,5-b]pyridine-5-carboxylic acid]	< 15 nM	32%	
O=C(O)c1ccc2nc(Cc3ccc(-c4ccc(F)c(OCc5ccc(Cl)cc5F)n4)c(F)c3)n(C[C@@H]3CCO3)c2n1 [Compound 305, (S)-2-(4-(6-((4-chloro-2-fluorobenzyl)oxy)-5-fluoropyridin-2-yl)-3-fluorobenzyl)-3-(oxetan-2-ylmethyl)-3H-imidazo[4,5-b]pyridine-5-carboxylic acid]	< 15 nM	31.8%	
N#Cc1ccc(COc2cccc(N3CCC(=Cc4nc5ccc(C(=O)O)cc5n4C[C@@H]4CCO4)CC3)n2)c(F)c1 [Compound 317, (S)-2-((1-(6-((4-cyano-2-fluorobenzyl)oxy)pyridin-2-yl)piperidin-4-ylidene)methyl)-1-(oxetan-2-ylmethyl)-1H-benzo[d]imidazole-6-carboxylic acid]	< 15 nM		
N#Cc1ccc(COc2cccc(N3CCC(=Cc4nc5ccc(C(=O)O)c(F)c5n4C[C@@H]4CCO4)CC3)n2)nc1 [Compound 318, (S)-2-((1-(6-((5-cyanopyridin-2-yl)methoxy)pyridin-2-yl)piperidin-4-ylidene)methyl)-7-fluoro-1-(oxetan-2-ylmethyl)-1H-benzo[d]imidazole-6-carboxylic acid]	15 to 150 nM		
O=C(O)c1ccc2nc(CC3CCC(c4cccc(OCc5ccc(Cl)cc5F)n4)CC3)n(C[C@@H]3CCO3)c2c1 (stereo partly drawn) [Compound 319, (S)-2-((4-(6-((4-chloro-2-fluorobenzyl)oxy)pyridin-2-yl)cyclohexyl)methyl)-1-(oxetan-2-ylmethyl)-1H-benzo[d]imidazole-6-carboxylic acid]	15 to 150 nM		
N#Cc1ccc(COc2cccc(-c3ccc(Nc4nc5ccc(C(=O)O)cc5n4C[C@@H]4CCO4)c(F)c3)n2)c(F)c1 [Compound 320, (S)-2-((4-(6-((4-cyano-2-fluorobenzyl)oxy)pyridin-2-yl)-2-fluorophenyl)amino)-1-(oxetan-2-ylmethyl)-1H-benzo[d]imidazole-6-carboxylic acid]	15 to 150 nM		
O=C(O)c1ccc2nc(Cn3ccc(-c4cccc(OCc5ccc(Cl)cc5F)n4)cc3=O)n(C[C@@H]3CCO3)c2c1 [Compound 323, (S)-2-((6-((4-chloro-2-fluorobenzyl)oxy)-2′-oxo-[2,4′-bipyridin]-1′(2′H)-yl)methyl)-1-(oxetan-2-ylmethyl)-1H-benzo[d]imidazole-6-carboxylic acid]	< 15 nM		19.4%
N#Cc1ccc(COc2cccc(-c3ccn(Cc4nc5ccc(C(=O)O)nc5n4C[C@@H]4CCO4)c(=O)c3)n2)c(F)c1 [Compound 324, (S)-2-((6-((4-cyano-2-fluorobenzyl)oxy)-2′-oxo-[2,4′-bipyridin]-1′(2′H)-yl)methyl)-3-(oxetan-2-ylmethyl)-3H-imidazo[4,5-b]pyridine-5-carboxylic acid]	15 to 150 nM		
N#Cc1ccc(COc2nc(-c3ccn(Cc4nc5ccc(C(=O)O)nc5n4C[C@@H]4CCO4)c(=O)c3)ncc2F)c(F)c1 [Compound 325, (S)-2-((4-(4-((4-cyano-2-fluorobenzyl)oxy)-5-fluoropyrimidin-2-yl)-2-oxopyridin-1(2H)-yl)methyl)-3-(oxetan-2-ylmethyl)-3H-imidazo[4,5-b]pyridine-5-carboxylic acid]	15 to 150 nM		
O=C(O)c1ccc2nc(CN3CC=C(c4cccc(OCc5ccc(Cl)cc5F)n4)CC3)c(Cc3cocn3)n2c1 [Compound 327, 2-((6-((4-chloro-2-fluorobenzyl)oxy)-3′,6′-dihydro-[2,4′-bipyridin]-1′(2′H)-yl)methyl)-3-(oxazol-4-ylmethyl)imidazo[1,2-a]pyridine-6-carboxylic acid]	15 to 150 nM		
N#Cc1ccc(COc2cccc(C3=CCN(Cc4nc5ccc(B(O)O)cc5n4C[C@@H]4CCO4)CC3)n2)c(F)c1 [Compound 328, (S)-(2-((6-((4-cyano-2-fluorobenzyl)oxy)-3′,6′-dihydro-[2,4′-bipyridin]-1′(2′H)-yl)methyl)-1-(oxetan-2-ylmethyl)-1H-benzo[d]imidazol-6-yl)boronic acid]	15 to 150 nM		
O=C(O)c1ccc2nc(CN3CC=C(c4cccnc4OCc4ccc(Cl)cc4F)CC3)n(C[C@@H]3CCO3)c2c1 [Compound 329, (S)-2-((2-((4-chloro-2-fluorobenzyl)oxy)-3′,6′-dihydro-[3,4′-bipyridin]-1′(2′H)-yl)methyl)-1-(oxetan-2-ylmethyl)-1H-benzo[d]imidazole-6-carboxylic acid]	15 to 150 nM		
CC1(c2ccc(Cl)cc2F)Oc2cccc(C3=CCN(Cc4nc5ccc(C(=O)O)cc5n4C[C@@H]4CCO4)CC3)c2O1 (stereo partly drawn) [Compound 330, 2-((4-(2-(4-chloro-2-fluorophenyl)-2-methylbenzo[d][1,3]dioxol-4-yl)-5,6-dihydropyridin-1(2H)-yl)methyl)-1-((S)-oxetan-2-ylmethyl)-1H-benzo[d]imidazole-6-carboxylic acid]	< 15 nM		
O=C(O)c1ccc2nc(CN3CC=C(c4scnc4OCc4ccc(Cl)cc4F)CC3)n(C[C@@H]3CCO3)c2c1 [Compound 331, (S)-2-((4-(4-((4-chloro-2-fluorobenzyl)oxy)thiazol-5-yl)-3,6-dihydropyridin-1(2H)-yl)methyl)-1-(oxetan-2-ylmethyl)-1H-benzo[d]imidazole-6-carboxylic acid]	< 15 nM	17.9%	
O=C(O)c1ccc2nc(CN3CC=C(c4csnc4OCc4ccc(Cl)cc4F)CC3)n(C[C@@H]3CCO3)c2c1 [Compound 332, (S)-2-((4-(3-(4-chloro-2-fluorobenzyloxy)isothiazol-4-yl)-5,6-dihydropyridin-(2H)-yl)methyl)-1-(oxetan-2-ylmethyl)-1H-benzo[d]imidazole-6-carboxylic acid]	< 15 nM	14.5%	
N#Cc1ccc(COc2ncccc2C2=CCN(Cc3nc4ccc(C(=O)O)cc4n3C[C@@H]3CCO3)CC2)c(F)c1 [Compound 333, (S)-2-((4-(2-(4-cyano-2-fluorobenzyloxy)pyridin-3-yl)-5,6-dihydropyridin-1(2H)-yl)methyl)-1-(oxetan-2-ylmethyl)-1H-benzo[d]imidazole-6-carboxylic acid]	15 to 150 nM	9.75%	
CC1(c2ccc(C#N)cc2F)Oc2cccc(C3=CCN(Cc4nc5ccc(C(=O)O)cc5n4C[C@@H]4CCO4)CC3)c2O1 (stereo partly drawn) [Compound 334, 2-((4-(2-(4-cyano-2-fluorophenyl)-2-methylbenzo[d][1,3]dioxol-4-yl)-3,6-dihydropyridin-1(2H)-yl)methyl)-1-(((S)-oxetan-2-yl)methyl)-1H-benzo[d]imidazole-6-carboxylic acid]	< 15 nM	26.6%	
